Measured values published in patent US12568972B2, “Pyridazinol compounds and derivatives, preparation methods, herbicidal compositions and applications thereof” (Qingdao Kingagroot Chemical Compound Co., Ltd., priority 2018, dated 2026).

Each compound was assayed on Veronica polita (assay: Post-emergence test, weed control effect). Settings: Dose 3000 g/ha, after 3 weeks.
Type: in vivo
Method in brief: (§1)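 Seeds are sown in soil pots and raised in the greenhouse until the 2-3 leaf stage. Plants are then sprayed with compound dissolved in acetone with Tween-80, diluted in water and supplemented with 80% vegetable oil methyl ester synergist at 1500 g/ha, and fresh weight inhibition is rated 0-10 three weeks later.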

SMILES	weed control effect, Veronica polita (activity level)	weed control effect (activity level), Veronica polita
O=C(Oc1cc(C(F)(F)F)nnc1-c1ccc(F)cc1)N1CCCCC1 [Compound 1-67]	10	
Cn1ncc(C2CC2)c1-c1nnc(C(F)(F)F)cc1O [Compound 810]		10
Cn1ncc(C(F)F)c1-c1nnc(C(F)(F)F)cc1O [Compound 824]		10
CCCCCCOC(=O)Oc1cc(C(F)(F)F)nnc1-c1ccc(Cl)c([N+](=O)[O-])c1 [Compound 1-35]	10	
CCS(=O)Oc1cc(C(F)(F)F)nnc1-c1ccc(F)c(F)c1 (stereo not drawn) [Compound 1-165]	10	
CC(=O)Oc1cc(C(F)(F)F)nnc1-c1cccc(F)c1 [Compound 1-1]	10	
O=C(Oc1cc(C(F)(F)F)nnc1-c1ccccc1)N1CCOCC1 [Compound 1-65]	10	
CCCC/C(C)=N\Oc1cc(C(F)(F)F)nnc1-c1ccc(S(C)(=O)=O)cc1 [Compound 1-175]	10	
CCOC(=O)CCCOc1cc(C(F)(F)F)nnc1-c1ccc(F)cc1 [Compound 1-207]	10	
CN(C)C(=O)Oc1cc(C(F)(F)F)nnc1-c1ccc(F)c(F)c1 [Compound 1-60]	10	
Oc1cc(C(F)(F)F)nnc1-c1cc(F)cnc1Cl [Compound 1004]		10
O=C(Oc1cc(C(F)(F)F)nnc1-c1ccc(C(F)(F)F)cc1)c1cccc2c1OCO2 [Compound 1-118]	10	
Oc1cc(C(F)(F)F)nnc1-c1ccc(Cl)cc1C(F)(F)F [Compound 763]		10
CCOc1cc(-c2nnc(C(F)(F)F)cc2O)n(C)n1 [Compound 783]		10
Oc1cc(C(F)(F)F)nnc1-c1cnc(Cl)c(Cl)c1 [Compound 994]		10
CCC(=O)Oc1cc(C(F)(F)F)nnc1-c1ccc(F)cc1 [Compound 1-4]	10	
Oc1cc(C(F)(F)F)nnc1-c1cncc(F)c1Cl [Compound 1002]		10
COc1cc(Cl)c(COc2cc(C(F)(F)F)nnc2-c2ccc(F)cc2)cc1Cl [Compound 1-211]	10	
O=C(Oc1cc(C(F)(F)F)nnc1-c1ccccc1)C1CCCCC1 [Compound 1-19]	10	
Oc1cc(C(F)(F)F)nnc1C1C=C2C=CC=CC2N1 (stereo not drawn) [Compound 877]		10
O=C(Oc1cc(C(F)(F)F)nnc1-c1ccc(F)cc1)c1ccc2ccccc2c1 [Compound 1-114]	10	

Same assay, conditions: dose 1000 g/ha, after 3 weeks

SMILES	weed control effect (activity level), Veronica polita
Oc1cc(C(F)(F)F)nnc1-c1cc(F)cc(Br)c1 [Compound 49]	10
Oc1cc(C(F)(F)F)nnc1-c1ccccc1Cl [Compound 30]	10
O=[N+]([O-])c1cc(-c2nnc(C(F)(F)F)cc2O)ccc1F [Compound 66]	10

Same assay, conditions: dose 2000 g/ha, after 3 weeks

SMILES	weed control effect (activity level), Veronica polita
Cc1nc(F)ccc1-c1nnc(C(F)(F)F)cc1O [Compound 223]	10
CC(C)c1ccc(-c2nnc(C(F)(F)F)cc2O)cc1 [Compound 8]	10
Oc1cc(C(F)(F)F)nnc1-c1ccncc1Cl [Compound 279]	10

These compounds were tested on Chenopodiaceae (assay: Post-emergence test, weed control effect). Settings: Dose 3000 g/ha, after 3 weeks.
Type: in vivo
Method in brief: as §1

SMILES	weed control effect, Chenopodiaceae (activity level)	weed control effect (activity level), Chenopodiaceae
O=C(Oc1cc(C(F)(F)F)nnc1-c1ccc(F)cc1)N1CCCCC1 [Compound 1-67]	10	
Cn1ncc(C2CC2)c1-c1nnc(C(F)(F)F)cc1O [Compound 810]		10
Cn1ncc(C(F)F)c1-c1nnc(C(F)(F)F)cc1O [Compound 824]		10
CCCCCCOC(=O)Oc1cc(C(F)(F)F)nnc1-c1ccc(Cl)c([N+](=O)[O-])c1 [Compound 1-35]	10	
CCS(=O)Oc1cc(C(F)(F)F)nnc1-c1ccc(F)c(F)c1 (stereo not drawn) [Compound 1-165]	10	
CC(=O)Oc1cc(C(F)(F)F)nnc1-c1cccc(F)c1 [Compound 1-1]	10	
O=C(Oc1cc(C(F)(F)F)nnc1-c1ccccc1)N1CCOCC1 [Compound 1-65]	10	
CCCC/C(C)=N\Oc1cc(C(F)(F)F)nnc1-c1ccc(S(C)(=O)=O)cc1 [Compound 1-175]	10	
CCOC(=O)CCCOc1cc(C(F)(F)F)nnc1-c1ccc(F)cc1 [Compound 1-207]	10	
CN(C)C(=O)Oc1cc(C(F)(F)F)nnc1-c1ccc(F)c(F)c1 [Compound 1-60]	10	
Oc1cc(C(F)(F)F)nnc1-c1cc(F)cnc1Cl [Compound 1004]		10
O=C(Oc1cc(C(F)(F)F)nnc1-c1ccc(C(F)(F)F)cc1)c1cccc2c1OCO2 [Compound 1-118]	10	
Oc1cc(C(F)(F)F)nnc1-c1ccc(Cl)cc1C(F)(F)F [Compound 763]		10
CCOc1cc(-c2nnc(C(F)(F)F)cc2O)n(C)n1 [Compound 783]		10
Oc1cc(C(F)(F)F)nnc1-c1cnc(Cl)c(Cl)c1 [Compound 994]		10
CCC(=O)Oc1cc(C(F)(F)F)nnc1-c1ccc(F)cc1 [Compound 1-4]	10	
Oc1cc(C(F)(F)F)nnc1-c1cncc(F)c1Cl [Compound 1002]		10
COc1cc(Cl)c(COc2cc(C(F)(F)F)nnc2-c2ccc(F)cc2)cc1Cl [Compound 1-211]	10	
O=C(Oc1cc(C(F)(F)F)nnc1-c1ccccc1)C1CCCCC1 [Compound 1-19]	10	
Oc1cc(C(F)(F)F)nnc1C1C=C2C=CC=CC2N1 (stereo not drawn) [Compound 877]		10
O=C(Oc1cc(C(F)(F)F)nnc1-c1ccc(F)cc1)c1ccc2ccccc2c1 [Compound 1-114]	10	

Same assay, conditions: dose 1000 g/ha, after 3 weeks

SMILES	weed control effect (activity level), Chenopodiaceae
Oc1cc(C(F)(F)F)nnc1-c1cc(F)cc(Br)c1 [Compound 49]	10
Oc1cc(C(F)(F)F)nnc1-c1ccccc1Cl [Compound 30]	10
O=[N+]([O-])c1cc(-c2nnc(C(F)(F)F)cc2O)ccc1F [Compound 66]	10

Same assay, conditions: dose 2000 g/ha, after 3 weeks

SMILES	weed control effect (activity level), Chenopodiaceae
Cc1nc(F)ccc1-c1nnc(C(F)(F)F)cc1O [Compound 223]	10
CC(C)c1ccc(-c2nnc(C(F)(F)F)cc2O)cc1 [Compound 8]	8 (Level 8: above 80% growth inhibition rate)
Oc1cc(C(F)(F)F)nnc1-c1ccncc1Cl [Compound 279]	10

What follows are compounds tested on Amaranthus retroflexus (assay: Post-emergence test, weed control effect). Settings: Dose 3000 g/ha, after 3 weeks.
Type: in vivo
Method in brief: as §1

SMILES	weed control effect, Amaranthus retroflexus (activity level)	weed control effect (activity level), Amaranthus retroflexus
O=C(Oc1cc(C(F)(F)F)nnc1-c1ccc(F)cc1)N1CCCCC1 [Compound 1-67]	10	
Cn1ncc(C2CC2)c1-c1nnc(C(F)(F)F)cc1O [Compound 810]		10
Cn1ncc(C(F)F)c1-c1nnc(C(F)(F)F)cc1O [Compound 824]		10
CCCCCCOC(=O)Oc1cc(C(F)(F)F)nnc1-c1ccc(Cl)c([N+](=O)[O-])c1 [Compound 1-35]	10	
CCS(=O)Oc1cc(C(F)(F)F)nnc1-c1ccc(F)c(F)c1 (stereo not drawn) [Compound 1-165]	10	
CC(=O)Oc1cc(C(F)(F)F)nnc1-c1cccc(F)c1 [Compound 1-1]	10	
O=C(Oc1cc(C(F)(F)F)nnc1-c1ccccc1)N1CCOCC1 [Compound 1-65]	10	
CCCC/C(C)=N\Oc1cc(C(F)(F)F)nnc1-c1ccc(S(C)(=O)=O)cc1 [Compound 1-175]	10	
CCOC(=O)CCCOc1cc(C(F)(F)F)nnc1-c1ccc(F)cc1 [Compound 1-207]	10	
CN(C)C(=O)Oc1cc(C(F)(F)F)nnc1-c1ccc(F)c(F)c1 [Compound 1-60]	10	
Oc1cc(C(F)(F)F)nnc1-c1cc(F)cnc1Cl [Compound 1004]		10
O=C(Oc1cc(C(F)(F)F)nnc1-c1ccc(C(F)(F)F)cc1)c1cccc2c1OCO2 [Compound 1-118]	10	
Oc1cc(C(F)(F)F)nnc1-c1ccc(Cl)cc1C(F)(F)F [Compound 763]		10
CCOc1cc(-c2nnc(C(F)(F)F)cc2O)n(C)n1 [Compound 783]		10
Oc1cc(C(F)(F)F)nnc1-c1cnc(Cl)c(Cl)c1 [Compound 994]		10
CCC(=O)Oc1cc(C(F)(F)F)nnc1-c1ccc(F)cc1 [Compound 1-4]	10	
Oc1cc(C(F)(F)F)nnc1-c1cncc(F)c1Cl [Compound 1002]		10
COc1cc(Cl)c(COc2cc(C(F)(F)F)nnc2-c2ccc(F)cc2)cc1Cl [Compound 1-211]	10	
O=C(Oc1cc(C(F)(F)F)nnc1-c1ccccc1)C1CCCCC1 [Compound 1-19]	10	
Oc1cc(C(F)(F)F)nnc1C1C=C2C=CC=CC2N1 (stereo not drawn) [Compound 877]		10
O=C(Oc1cc(C(F)(F)F)nnc1-c1ccc(F)cc1)c1ccc2ccccc2c1 [Compound 1-114]	10	

Same assay, conditions: dose 1000 g/ha, after 3 weeks

SMILES	weed control effect (activity level), Amaranthus retroflexus
Oc1cc(C(F)(F)F)nnc1-c1cc(F)cc(Br)c1 [Compound 49]	10
Oc1cc(C(F)(F)F)nnc1-c1ccccc1Cl [Compound 30]	10
O=[N+]([O-])c1cc(-c2nnc(C(F)(F)F)cc2O)ccc1F [Compound 66]	10

Same assay, conditions: dose 2000 g/ha, after 3 weeks

SMILES	weed control effect (activity level), Amaranthus retroflexus
Cc1nc(F)ccc1-c1nnc(C(F)(F)F)cc1O [Compound 223]	10
CC(C)c1ccc(-c2nnc(C(F)(F)F)cc2O)cc1 [Compound 8]	10
Oc1cc(C(F)(F)F)nnc1-c1ccncc1Cl [Compound 279]	10

What follows are compounds tested on Rorippa indica (assay: Post-emergence test, weed control effect). Settings: Dose 3000 g/ha, after 3 weeks.
Type: in vivo
Method in brief: as §1

SMILES	weed control effect, Rorippa indica (activity level)	weed control effect (activity level), Rorippa indica
O=C(Oc1cc(C(F)(F)F)nnc1-c1ccc(F)cc1)N1CCCCC1 [Compound 1-67]	10	
Cn1ncc(C2CC2)c1-c1nnc(C(F)(F)F)cc1O [Compound 810]		10
Cn1ncc(C(F)F)c1-c1nnc(C(F)(F)F)cc1O [Compound 824]		10
CCCCCCOC(=O)Oc1cc(C(F)(F)F)nnc1-c1ccc(Cl)c([N+](=O)[O-])c1 [Compound 1-35]	10	
CCS(=O)Oc1cc(C(F)(F)F)nnc1-c1ccc(F)c(F)c1 (stereo not drawn) [Compound 1-165]	10	
CC(=O)Oc1cc(C(F)(F)F)nnc1-c1cccc(F)c1 [Compound 1-1]	10	
O=C(Oc1cc(C(F)(F)F)nnc1-c1ccccc1)N1CCOCC1 [Compound 1-65]	10	
CCCC/C(C)=N\Oc1cc(C(F)(F)F)nnc1-c1ccc(S(C)(=O)=O)cc1 [Compound 1-175]	10	
CCOC(=O)CCCOc1cc(C(F)(F)F)nnc1-c1ccc(F)cc1 [Compound 1-207]	10	
CN(C)C(=O)Oc1cc(C(F)(F)F)nnc1-c1ccc(F)c(F)c1 [Compound 1-60]	10	
Oc1cc(C(F)(F)F)nnc1-c1cc(F)cnc1Cl [Compound 1004]		10
O=C(Oc1cc(C(F)(F)F)nnc1-c1ccc(C(F)(F)F)cc1)c1cccc2c1OCO2 [Compound 1-118]	10	
Oc1cc(C(F)(F)F)nnc1-c1ccc(Cl)cc1C(F)(F)F [Compound 763]		10
CCOc1cc(-c2nnc(C(F)(F)F)cc2O)n(C)n1 [Compound 783]		10
Oc1cc(C(F)(F)F)nnc1-c1cnc(Cl)c(Cl)c1 [Compound 994]		10
CCC(=O)Oc1cc(C(F)(F)F)nnc1-c1ccc(F)cc1 [Compound 1-4]	10	
Oc1cc(C(F)(F)F)nnc1-c1cncc(F)c1Cl [Compound 1002]		10
COc1cc(Cl)c(COc2cc(C(F)(F)F)nnc2-c2ccc(F)cc2)cc1Cl [Compound 1-211]	10	
O=C(Oc1cc(C(F)(F)F)nnc1-c1ccccc1)C1CCCCC1 [Compound 1-19]	10	
Oc1cc(C(F)(F)F)nnc1C1C=C2C=CC=CC2N1 (stereo not drawn) [Compound 877]		10
O=C(Oc1cc(C(F)(F)F)nnc1-c1ccc(F)cc1)c1ccc2ccccc2c1 [Compound 1-114]	10	

Same assay, conditions: dose 1000 g/ha, after 3 weeks

SMILES	weed control effect (activity level), Rorippa indica
Oc1cc(C(F)(F)F)nnc1-c1cc(F)cc(Br)c1 [Compound 49]	10
Oc1cc(C(F)(F)F)nnc1-c1ccccc1Cl [Compound 30]	10
O=[N+]([O-])c1cc(-c2nnc(C(F)(F)F)cc2O)ccc1F [Compound 66]	10

Same assay, conditions: dose 2000 g/ha, after 3 weeks

SMILES	weed control effect (activity level), Rorippa indica
Cc1nc(F)ccc1-c1nnc(C(F)(F)F)cc1O [Compound 223]	10
CC(C)c1ccc(-c2nnc(C(F)(F)F)cc2O)cc1 [Compound 8]	10
Oc1cc(C(F)(F)F)nnc1-c1ccncc1Cl [Compound 279]	10
